Patent US20080234236A1, “REDUCTION OF ADVERSE EVENTS AFTER PERCUTANEOUS INTERVENTION BY USE OF A THROMBIN RECEPTOR ANTAGONIST” (priority 2007, published 2008)

Key:
dog Purkinje fibers = format: cell-based
[1] = Phase 2 study (P03573): death, MACE and other clinical events in primary (PCI) cohort; format: in vivo, humans; settings: for Death/MACE, patients (%) / Death/MACE/Stroke, patients (%) / Death/MI, patients (%) / MACE, patients (%) / MI, patients (%) / Recurrent ischemia, patients (%) / Revascularization, patients (%) / Death, patients (%) / Stroke, patients (%): primary cohort (PCI); for Death/MACE, patients (%) / Death/MACE/Stroke, patients (%) / Death/MI, patients (%) / MACE, patients (%) / MI, patients (%) / Recurrent ischemia, patients (%) / Revascularization, patients (%): 60 days
Text: The behavior of SCH 530348 in humans was further studied in a Phase 2 clinical development program. A key safety issue for SCH 530348 is the potential for incremental bleeding when added to standard of care with other oral antiplatelet therapies as well as parenteral antithrombotics. Therefore, a single Phase 2 study (P03573) was completed to evaluate the safety of SCH 530348 in patients at high risk of bleeding events, i.e., those patients undergoing non-emergent PCI (percutaneous coronary intervention). The goals of this Phase 2 study were to: • Evaluate the safety of SCH 530348 in addition to standard of care with respect to TIMI major and minor bleeding; and, • Observe the effects of SCH 530348 on major adverse cardiac events (“MACE”) in patients successfully completing an interventional procedure.
The primary endpoint (directed to evaluating safety) was the combined […] (“TIMI”) major and TIMI minor bleeding over sixty days in the primary evaluable cohort. Though the study was not powered to evaluate efficacy, a secondary endpoint (directed to evaluating efficacy) was the incidence of the composite of death and major adverse cardiac events (“MACE”) in the primary cohort. MACE includes myocardial infarction, urgent revascularization, and ischemia requiring hospitalization. Pharmacokinetics and pharmacodynamics were assessed at selected sites across the treatment groups. Other secondary endpoints included the incidence of TIMI major and minor bleeding in the secondary evaluable cohort i.e., those individuals who received the loading dose only.
Although the Phase 2 study was neither designed nor powered to assess efficacy, i.e., reduction of clinical event rates, there was a 31% relative reduction observed in the composite of death and major adverse cardiac events (MACE) at sixty days in the SCH 530348 group (5.9%) versus placebo (8.6%) in the primary cohort. This difference was not statistically significant. All clinical events were adjudicated by a blinded Clinical Events Committee.

[2] = Bleeding time by modified Ivy method; parameters: species or system humans; settings: in vivo
[3] = Pharmacokinetics: blood concentration of SCH 530348; format: in vivo, humans
Procedure: As the dose of SCH 530348 increased, the onset of platelet aggregation occurred at earlier sampling time points and maximum observed inhibition of aggregation increased, with 20 and 40 mg causing consistent maximum (>80%) inhibition of TRAP-induced platelet aggregation at 1-2 hours post dose. […] The duration of these pharmacodynamic effects is consistent with the drug's long elimination half-life.
This level of platelet inhibition is believed to be sufficient to lower the risks of adverse clinical events associated with PCI. […] The term “risk-abated PCI procedures” will be understood to mean those PCI procedures that are undertaken after the patient has achieved at least 80% platelet inhibition. This represents a marked improvement over the 4-6 hour period before risk-abated PCI can be performed using the current standard of care, i.e., clopidogrel and aspirin without a thrombin receptor antagonist.

[4] = primary cohort, 40 mg loading dose

## CCOC(=O)N[C@@H]1CC[C@@H]2[C@@H](C1)C[C@H]1C(=O)O[C@H](C)[C@H]1[C@H]2/C=C/c1ccc(-c2cccc(F)c2)cn1.O=S(=O)(O)O [SCH 530348, ethyl [(1R,3aR,4aR,6R,8aR,9S,9aS)-9-[(E)-2-[5-(3-fluorophenyl)-2-pyridinyl]ethenyl]-dodecahydro-1-methyl-3-oxonaphtho[2,3-c]furan-6-yl] carbamate bisulfate]
Dog Purkinje fibers
  QT prolongation based on action potential duration: no evidence of QT prolongation
[1]; 10 mg loading dose
  Death/MACE, patients (%): 8.5%
  Death/MACE/Stroke, patients (%): 9.3%
  Death/MI, patients (%): 5.4%
  MACE, patients (%): 8.5%
  MI, patients (%): 5.4%
  Recurrent ischemia, patients (%): 0.8%
  Revascularization, patients (%): 2.3%
  Death, patients (%): 0.8%
  Stroke, patients (%): 0.8%
[1]; 20 mg loading dose
  Death/MACE, patients (%): 5%
  Death/MACE/Stroke, patients (%): 5.0%
  Death/MI, patients (%): 4.2%
  MACE, patients (%): 5.0%
  MI, patients (%): 4.2%
  Revascularization, patients (%): 0.8%
[1]; 40 mg loading dose
  Death/MACE, patients (%): 4.6%
  Death/MACE/Stroke, patients (%): 4.6%
  Death/MI, patients (%): 4.0%
  MACE, patients (%): 4.0%
  MI, patients (%): 3.5%
  Revascularization, patients (%): 1.2%
  Death, patients (%): 0.6%
[1]; All SCH 530348
  Death/MACE, patients (%): 5.9%
  Death/MACE/Stroke, patients (%): 6.2%
  Death/MI, patients (%): 4.5%
  MACE, patients (%): 5.7%
  MI, patients (%): 4.3%
  Recurrent ischemia, patients (%): 0.2%
  Revascularization, patients (%): 1.4%
  Death, patients (%): 0.5%
  Stroke, patients (%): 0.2%
[1]; [4]
  Reduction in MI versus placebo: 52%
  Relative reduction in composite of death and MACE versus placebo: 47%
[1]; primary cohort, SCH 530348 group (all doses), not statistically significant
  Relative reduction in composite of death and MACE at sixty days versus placebo: 31%
[2]
  Increasing bleeding time as measured by a modified Ivy method: without
[3]; 40 mg loading dose
  Time to peak blood concentration levels: in as little as one hour
[3]; in vivo
  Elimination half-life: long
